Reference: US20040122209A1, “Products for regulating the degradation of collagen and methods for identifying same” (Shriners Hospital For Children, priority 2002, published 2004)
Entries after “also recorded” stand apart in the source; their conditions may differ.

Assays:
Type in all cases: cell-based
[1] = tested on: normal human adult articular cartilage explants; experiment: Type II collagen cleavage by collagenase (COL2-3/4C) in human articular cartilage explant culture
Procedure: Human femoral chondylar cartilages were obtained at autopsy within 18 hours of death from adult persons with no known history of arthritis and no macroscopic signs of articular degeneration. None of the persons had diabetes or had received chemotherapy prior to autopsy. Adult bovine articular cartilage was obtained from adults/bovine steers and cows from metacarpalphalangeal joints obtained at the abbatoir immediately after slaughter. All cartilage specimens were removed immediately to the laboratory under sterile conditions.
(§1) The cartilages were prepared as previously described (Dahlberg, L. et al. (2000) supra. In brief, the cartilage samples were washed three times with basal culture medium containing Dulbecco's modified Eagle's medium (DMEM; Gibco BRL, Life Technologies, Grand Island, N.Y.) with 20 mM HEAPS buffer (pH 7.4) (Gibco BRL), 45 mM NaHCO3, 100 units/ml penicillin, 100 μg/ml streptomycin and 150 μg/ml gentamycin sulphate (Medium A). Full-depth cartilage slices from a single area, around 20 mm×20 mm were cut vertical to the articular surface and then into cubes of approximately 2 mm×2 mm (5-7 cubes were randomly obtained and wet weights about 50-70 mg/well determined).
(§2) The cartilage was assigned to 48 well plate (ca 40 mg/well) and kept in Medium A supplemented with 50 μg/ml ascorbic acid, 0.1 mg/bovine serum albumin, 50 μg/ml insulin, 5.0 μg/ml and 5.0 μg/ml sodium DMEM alone at 37° C. in 95% air/5% CO2. The cartilage was precultured for 2 days and medium was changed at day 0. Thereafter medium (as described in pellet cultures) was replaced every four days. Various CNBr fragments and/or synthetic peptides were freshly added from day 0 at each medium change. Thereafter, cartilage explants and conditioned media were harvested and stored at −20° C.
(§3) The cell pellets and cartilage explant cultured for various times were digested for the extraction of collagenase-generated neoepitope COL2-3/4Cshort (Billinghurst, R. C. et al., (1997) supra) and denatured type II collagen epitope COL2-3/4m and total type II collagen (Hollander, A. P. et al. (1994a) supra), as previously described: Briefly, the harvested pellets were incubated overnight with 1.0 mg/ml α-chymotrypsin at 37° C. to cleave and solubilize denatured collagen leaving the above neoepitope and epitope intact. After inhibition of α-chymotrypsin activity with N-tosyl-L-phenelalanine-chloromethyl ketone (Sigma), the samples were centrifuged and the supernatants were removed and boiled for 10 min. The COL2-3/4Cshort epitope (hereafter referred to as COL2-3/4Cshort) generated by cleavage of type II collagen by collagenase (Billinghurst, R. C. et al. (1997) supra) and intrachain epitope (COL2-3/4m) exposed in denatured type II collagen (Hollander, A. P. et al. (1994a) supra) were measured in α-chymotrypsin extracts by immunoassay. The COL2-3/4Cshort epitope is detected in an ELISA assay using a rabbit antibody to the carboxyterminal cleavage neoepitope on the TCA piece generated by primary collagenase cleavage of type II collagen. The release of the COL2-3/4C epitope into media was also measured by immunoassay. Total contents in tissue/cells and media was recorded for COL2-3/^4Cshort epitope. The COL2-3/4m epitope was recorded in cells and tissue where it was concentrated. The remaining residues of pellets and explants were digested overnight with 1.0 mg/ml proteinase K at 56° C. to extract the remaining intact type II collagen and then boiled for 10 min to denature the enzyme. Total type II collagen content in the pellets and explant was determined from the collective amount of COL2-3/4m in both the α-chymotrypsin and proteinase K digests.

[2] = tested on: bovine articular cartilage explant; experiment: Collagenase-cleaved type II collagen (COL2-3/4C) in bovine articular cartilage explant culture; conditions: 1 and 10 μM, time- and dose-dependent
Procedure: as §1, §2, §3

MMP-1 = experiment: ELISA for MMP-1 in conditioned medium of human chondrocytes; conditions: 48 hours; CB12-II 50 μM, TNF-α 50 ng/ml
Procedure: (§4) First-passaged normal human chondrocytes isolated by the method described above and cultured at high density (2×10^5 cells/cm^2) were trypsinized and resuspended in Medium A containing 1% FCS at a density of 10^6 cells/ml. Then, 200 μl of the cell suspension was each plated onto round-bottomed 96-well culture plate. On the next day after plating, CB12-II at 50 μM, USP at 50 μM, and TNF-α at 50 ng/ml were added to the culture media, and the culture was maintained for 24-48 hours. Conditioned media were collected and subjected to ELISA assay. The ELISA kits (BIOTRAK) for MMP-1 and MMP-13 were purchased from Amersham Pharmacia Biotech (Piscataway, N.J.). Measurement range was 6.25-100 ng/ml for MMP-1 and 0.094-3 ng/ml for MMP-13. Sensitivity for the assay was 1.7 ng/ml for MMP-1 and 0.7 ng/ml for MMP-13.
(§5) Protein levels of MMP-1 and MMP-13 were also tested by incubating isolated human chondrocytes for 48 hours in high density culture (10^6 cells/ml) with CB12-II, negative control peptide USP, or cytokine TNF-α, as discussed above. MMP-1 and MMP-13 secretion into medium from the cells was measured using ELISA (see FIGS. 9A and 9B).

MMP-13 = experiment: ELISA for MMP-13 in conditioned medium of human chondrocytes; conditions: 48 hours; CB12-II 50 μM, TNF-α 50 ng/ml
Procedure: as §4, §5

COL2-3/4 epitope production in cartilage and medium ([1]; 10 μM, day 12): significant progressive increase
type II collagen cleavage by collagenase in presence of peptide ([1]; hydroxylation study, day 16): clearly enhanced
induction of total collagenase cleavage of type II collagen by CB12 subpeptides [2]: most pronounced
Sequence: ERGPPGPQGARGFPGTPGLPGVK [CB12-II]
induction of cleavage of type II collagen, dose dependence ([1]; 1 μM (one donor), 5 μM and 10 μM (both donors), over 16 days): dose dependent manner; also recorded: Activity was seen
MMP-1 secretion into medium versus no peptide and negative control peptide (USP) (MMP-1): significantly higher
MMP-13 secretion into medium versus no peptide and negative control peptide (USP) (MMP-13): significantly higher
